Reference: patent publication US20220112192A1, “COMPOUNDS AND METHODS OF USE THEREOF FOR TREATMENT OF CANCER” (ARAXES PHARMA LLC, priority 2018, published 2022)

Each compound was assayed against T1, KRAS G12C 1-169, his-tagged protein, GDP-loaded (Homo sapiens, UniProt P01116, G12C) (assay: Biochemical assay: covalent modification of KRAS G12C measured by mass spectrometry). Details: modification of KRAS G12C at 10 minutes.
T1 construct: KRAS G12C 1-169, his-tagged protein, GDP-loaded
Format: binding
Experimental: Test compounds were prepared as 10 mM stock solutions in DMSO (Fisher cat #BP-231-100). KRAS G12C 1-169, his-tagged protein, GDP-loaded was diluted to 2 μM or 0.5 μM in buffer (20 mM Hepes, 150 mM NaCl, 1 mM MgCl2).
Compounds were tested for activity as follows: Compounds were diluted to 50× final test concentration in DMSO in 96-well storage plates. Compound stock solutions were vortexed before use and observed carefully for any sign of precipitation. Dilutions were as follow: • For 100 μM final compound concentration, compounds were diluted to 5000 μM (5 μL 10 mM compound stock+5 μL DMSO and mixed well by pipetting. • For 30 μM final compound concentration, compounds were diluted to 1500 μM (3 μL 10 mM compound stock+17 μL DMSO) and mixed well by pipetting. • For 10 μM final compound concentration, compounds were diluted to 500 μM (2 μL 10 mM compound stock+38 μL DMSO) and mixed well by pipetting. 49 μL of the stock protein solution was added to each well of a 96-well PCR plate (Fisher cat #1423027). 1 μL of the diluted 50× compounds were added to appropriate wells in the PCR plate using 12-channel pipettor. Reactions were mixed carefully and thoroughly by pipetting up/down with a 200 μL multi-channel pipettor. The plate was sealed well with aluminum plate seal, and stored in drawer at room temperature for 10 minutes, 30 minutes, 2 hours or 24 hours. 5 μL of 2% formic acid (Fisher cat #A117) in de-ionized H2O was then added to each well followed by mixing with a pipette. The plate was then resealed with aluminum seal and stored on dry ice until analyzed as described below.
The above described assays are analyzed by mass spectrometry according to one of the following two procedures:
The MS instrument was set to positive polarity, 2 GHz resolution, and low mass (1700) mode and allowed to equilibrate for 30 minutes. The instrument was then calibrated, switched to acquisition mode and the appropriate method loaded.
After another 30 minute equilibration time, a blank batch (i.e., buffer) was run to ensure equipment is operating properly. The samples are thawed at 37° C. for 10 minutes, briefly centrifuged, and transferred to the bench top. Wells A1 and H12 were spiked with 1 μL 500 μM internal standard peptide, and the plates centrifuged at 2000×g for 5 minutes. The method was then run and masses of each individual well recorded.
The masses (for which integration data is desired) for each well were pasted into the platemap and exported from the analysis. Masses for the internal standards were exported as well. The data at 50 ppm was extracted for the +19 charge state, and identity of well A1 was assigned using the internal standard spike and integrated. Peak data was exported as a TOF list and the above steps are repeated individually, for the +20, 21, 22, 23, 24, and 25 charge states.
? -Exactive Assay:
The masses and peak intensities of KRAS G12C protein species were measured using a Dionex RSLCnano system (Thermo Scientific) connected to a Q Exactive Plus mass spectrometer (Thermo Scientific). […] of sample was each loaded onto a Aeris™ […] WIDEPORE C4 200 Å, LC Column 50×2.1 mm column maintained at 40° C. at a flow rate of 600 μL/min with 20% Solvent A (0.1% formic acid in H2O) and […] (0.1% formic acid in acetonitrile). The liquid chromatography conditions were 20% solvent B for 1 minute, 20% to 60% solvent B for 1.5 minutes, 60% to 90% solvent for 0.5 minute, 90% solvent B for 0.2 minute, 90% to 20% solvent B for 0.2 minute, and then equilibrated for 1.6 minutes before the following sample injection. The flow rate was maintained at 600 μL/min throughout sample analysis.
The mass spectrometer was operated in profile mode at a resolution of 17500, 5 microscans, using 50 msec max injection time and an AGC target of 1×10^6, and a full mass range from 800-1850 m/z was recorded. The HCD trapping gas was optimized for maximum sensitivity for intact proteins. […]
In the case of “1-(6-(6-chloro-7-(5-methyl-1H-indazol-4-yl)-2-(((S)-1-methylpyrrolidin-2-yl)methoxy)-8-(2,2,2-trifluoroethoxy)quinazolin-4-yl)-2,6-diazaspiro[3.4]octan-2-yl)prop-2-en-1-one [Compound I-75]”, the Binding % is reported as “+++ (+++ indicates binding activity greater than 85% at 10 minutes)”. C=CC(=O)N1CC2(CCN(c3nc(OC[C@@H]4CCCN4C)nc4c(F)c(-c5c(C)ccc6cnn(C)c56)c(Cl)cc34)CC2)C1 [Compound I-2, 1-(7-(6-chloro-7-(1,6-dimethyl-1H-indazol-7-yl)-8-fluoro-2-(((S)-1-methylpyrrolidin-2-yl)methoxy)quinazolin-4-yl)-2,7-diazaspiro[3.5]nonan-2-yl)prop-2-en-1-one] was tested, and the Binding % was “+++ (+++ indicates binding activity greater than 85% at 10 minutes)”. C=CC(=O)N1CC2(CCN(c3c(Cl)c(-c4c(C)ccc5[nH]ncc45)c(OCC(F)(F)F)c4nc(OC[C@@H]5CCCN5C)ncc34)C(C)C2)C1 (stereo partly drawn) [Compound I-76, 1-(7-(6-chloro-7-(5-methyl-1H-indazol-4-yl)-2-(((S)-1-methylpyrrolidin-2-yl)methoxy)-8-(2,2,2-trifluoroethoxy)quinazolin-5-yl)-6-methyl-2,7-diazaspiro[3.5]nonan-2-yl)prop-2-en-1-one] was tested, and the Binding % was “++ (++ indicates binding activity from 50 to 85% at 10 minutes)”. “1-(6-(7-(5-methyl-1H-indazol-4-yl)-2-(((S)-1-methylpyrrolidin-2-yl)methoxy)-8-(2,2,2-trifluoroethoxy)-6-vinylquinazolin-4-yl)-2,6-diazaspiro[3.4]octan-2-yl)prop-2-en-1-one [Compound I-74]” was tested, and the Binding % was “++ (++ indicates binding activity from 50 to 85% at 10 minutes)”. In the case of C=CC(=O)N1CC2(CCN(c3nc(OC[C@@H]4CCCN4C)nc4c(F)c(-c5c(C)ccc6cnn(C)c56)c(Cl)cc34)C2)C1 [Compound I-1, 1-(6-(6-chloro-7-(1,6-dimethyl-1H-indazol-7-yl)-8-fluoro-2-(((S)-1-methylpyrrolidin-2-yl)methoxy)quinazolin-4-yl)-2,6-diazaspiro[3.4]octan-2-yl)prop-2-en-1-one], the Binding % is reported as “++ (++ indicates binding activity from 50 to 85% at 10 minutes)”. In the case of C=CC(=O)C1CC2(CCN1c1nc(=O)n(-c3ccccc3C(C)C)c3cc(-c4c(C)ccc5[nH]ncc45)c(Cl)cc13)CNC2 (single isomer, unassigned) [II-5a, 4-(6-acryloyl-2,7-diazaspiro[3.5]nonan-7-yl)-6-chloro-1-(6-isopropylphenyl)-7-(5-methyl-1H-indazol-4-yl)quinazolin-2(1H)-one], the Binding % is reported as “+ (+ indicates binding activity greater than 0% and up to 50% at 10 minutes)”. C=CC(=O)C1CC2(CCN1c1nc(=O)n(-c3ccccc3C(C)C)c3cc(-c4c(C)ccc5[nH]ncc45)c(Cl)cc13)CNC2 (single isomer, unassigned) [II-5b, 4-(6-acryloyl-2,7-diazaspiro[3.5]nonan-7-yl)-6-chloro-1-(6-isopropylphenyl)-7-(5-methyl-1H-indazol-4-yl)quinazolin-2(1H)-one] was tested, and the Binding % was “++ (++ indicates binding activity from 50 to 85% at 10 minutes)”. In the case of C=CC(=O)N1CC2(CCN(c3nc(OC[C@@H]4CCCN4C)nc4c(F)c(-c5c(C)ccc6cn[nH]c56)c(Cl)cc34)CC2)C1 [Compound I-3, 1-(7-(6-chloro-8-fluoro-7-(6-methyl-1H-indazol-7-yl)-2-(((S)-1-methylpyrrolidin-2-yl)methoxy)quinazolin-4-yl)-2,7-diazaspiro[3.5]nonan-2-yl)prop-2-en-1-one], the Binding % is reported as “+++ (+++ indicates binding activity greater than 85% at 10 minutes)”. In the case of C=CC(=O)N1CC2(CCN(c3nc(OC[C@@H]4CCCN4C)nc4c(F)c(-c5c(C)ccc6[nH]ncc56)c(Cl)cc34)CC2)C1 [Compound I-6, 1-(7-(6-chloro-8-fluoro-7-(5-methyl-1H-indazol-4-yl)-2-(((S)-1-methylpyrrolidin-2-yl)methoxy)quinazolin-4-yl)-2,7-diazaspiro[3.5]nonan-2-yl)prop-2-en-1-one], the Binding % is reported as “+++ (+++ indicates binding activity greater than 85% at 10 minutes)”.
